One assay deals with 3×TgAD and non-Tg mice. Description: Trace eyeblink conditioning, learning and memory. The class given is in vivo, mouse. Conditions: for memory performance nine days after learning trial / learning performance: 3 months; for learning performance: 10 mg/kg s.c. once. How it is done:
Under deep anesthesia by intraperitoneal (i.p.) injection with ketamine (100 mg/kg i.p.) and xylazine (25 mg/kg i.p.), a 4 pin head stage (DIGI-KEY) was cemented to the skull of 3 month old male mouse with dental acrylic. The connector has four Teflon-coated stainless steel wires and one bare stainless steel wire (0.003″ bare and 0.0055″ coated, A-M Systems, Inc.). The bare wire was attached via a gold pin (Time Electronics) to the head stage. Coated wires were implanted s.c. in the orbicularis oculi dorsal to the left upper eyelid to record the EMG and s.c. periorbitally to deliver the shock US (3). All animals were then placed on a warm isothermal pad after surgery to recovery for 30 min. After surgery, mice were individually housed, provided with ad libitum access to food and water, and maintained on a 12 hr light/dark cycle.
After one week of acclimation to the colony room, mice with no obvious adverse responses to surgery were randomly assigned to an experimental condition. Mice were injected subcutaneously (s.c.) with 10 mg/kg THP or vehicle followed one hour later with an IP injection of BrdU (100 mg/kg). Following injection of test compound, mice were returned to their home cage for 7 days prior to onset of behavioral testing.
During the first day of training, mice were placed within Plexiglas cylinders in a sound-attenuated chamber and were habituated to the test environment for one session consisting of 30 stimulus-free trials at 30-60 sec inter-trial intervals while spontaneous eye-blink activity was recorded using electromyographic (EMG) activity recorded from the obicularis oculi dorsal to the orbit during each trial. EMG activity was rectified, and integrated using custom designed computational Labview routines.
Following habituation to the test environment mice underwent a learning phase and were trained for five days. Mice were trained by pairing delivery of a tone (CS, 250 msec, 2 kHz, 85 dB) as the conditioned stimulus followed by a 250 msec period of no stimuli, followed by the periobital shock as the unconditioned stimulus (US, 100 msec). Mice received two blocks of 30 trials per day (30-60-sec inter-trial intervals, 3-4-h inter-block intervals). This trace eye-blink conditioning paradigm is subthreshold for inducing neurogenesis. The unpaired group received random tone at the same magnitude as the paired conditioning and shock with 15-30 sec as inter-trial intervals and a total of 60 trials for one session per day. Shock intensity was adjusted daily for each mouse to elicit a head-movement response. Following the learning phase, mice were returned to their home cage for eight days followed on the ninth day by a single session to assess memory of the conditioned response. The percentage of CR was computed as the ratio of the number of CRs to the total number of valid trials. Animals were perfused at the end of the memory trial day.
To determine if there was a functional consequence of THP-induced neurogenesis, the impact of THP on both the learning and memory of a behavioral task shown to be dependent upon the generation of new neurons in the dentate gyrus, delayed trace conditioning was assessed. 3×TgAD and non-Tg background mice were prepared for behavioral testing and received a single s.c. injection of THP (10 mg/kg once) or vehicle 7 days prior to start of the learning trial. After injection, mice were housed for 7 days before the training process started. The rationale for the 7 day interim between exposure to THP and the start of the behavioral experiment was to allow time for the proliferation, migration and integration of newly generated neurons into the dentate gyrus.
Following the 7 day interim period, the behavioral testing commenced with a 5 day (2×30 trials/day) training learning phase to assess rate and magnitude learning performance. After the learning trial, mice were returned to their home cage for another 9 day period and subsequently tested for memory of the learned association. […]

In another assay the test system is SVZ from 3×TgAD mice. The assay is described as follows: Unbiased stereology of BrdU-positive cells in subventricular zone. It is filed as in vivo, mouse. To be noted: 10 mg/kg.
Another assay concerns hippocampal neural cells. Description: 3H-thymidine uptake in cultured hippocampal neural cells. It is filed as cell-based, rat. To be noted: from about 0.1 nm to about 250 nm THP. How it is done:
Biochemical analyses of 3H-thymidine uptake, as a measure of DNA synthesis, were used as the experimental vehicle to confirm the morphological observations described in examples 1 and 2. […] Thus, the range for the neurogenic effect of THP on neural cells is quite is sensitive and quite broad.
For these experiments, cultured hippocampal neural cells, derived from embryonic day 18 rat fetuses, were allowed to adhere to polylysine coated plastic cover-slips for 40 min in serum containing medium. Following adhesion, neurons were exposed to […] 3H-thymidine in the presence or absence of 100-500 nM THP and allowed to incubate at 37° C. for 24 hours in the absence or presence of the indicated steroids. Data are expressed as mean+SEM, *p<. 05,**p<0.01, ***p<0.001.
The time course of THP-induced 3H-thymidine incorporation in hippocampal neuronal cells is shown in FIG. 9 where cultured hippocampal nerve cells, derived from embryonic day 18 rat fetuses, were allowed to adhere to polylysine coated plastic cover-slips for 40 min in serum containing medium. Following adhesion, serum containing medium in the presence or absence of 10-250 nM THP plus […] 3H-thymidine and allowed to incubate at 37 for 1, 8 or 24 hours. Data are expressed as mean±SEM, *p<0.05,**p<0.01,***p<0.001.

In the case of `CC(=O)[C@H]1CC[C@H]2[C@@H]3CC[C@H]4C[C@H](O)CC[C@]4(C)[C@H]3CC[C@]12C` [THP, 3α-hydroxy-5α-pregnan-20-one], in the assay with 3×TgAD and non-Tg mice (3×TgAD mice), the “memory performance nine days after learning trial” value is listed as “significant increase in memory” and the learning performance entry is recorded as “significantly increased the learning performance”. Besides, the “learning level (conditioned response) at the end of training” value with 3×TgAD and non-Tg mice (3×TgAD mice, 6-months-old, 10 mg/kg) was found to be 39.2±9.2%. For the same molecule, the “memory test 9 days after acquisition phase” value in the assay on 3×TgAD and non-Tg mice (3×TgAD mice, 6 months) was “significantly increased the retention of the conditioned response rate”. Further, in the assay with 3×TgAD and non-Tg mice (3×TgAD mice, 9-months-old), the “final level of learning” value amounted to 23.6±4.0% and the “memory performance after 9 days vs vehicle” value is given as “significantly better memory performance”. Besides, in the assay with 3×TgAD and non-Tg mice (3×TgAD mice, 12-months-old), the “final level of learning” value was 14.9±3.6% and the “memory deficit vs vehicle-treated non-Tg mice” value is “not reversed”. Further, the “learning rate and final level of learning” value with 3×TgAD and non-Tg mice (3×TgAD mice, 15-month-old) was “did not affect the learning rate nor the final levels of learning”. In the assay with 3×TgAD and non-Tg mice (3×TgAD mice, memory phase), the “% CR” value was found to be 53.96%. For the same molecule, in the assay with 3×TgAD and non-Tg mice (non-Tg mice), the “memory performance nine days after learning trial” value is reported as “did not significantly augment the memory performance” and the learning performance entry is reported as “did not augment the learning performance”. Also, the memory retention result with 3×TgAD and non-Tg mice (non-Tg mice, 6 months) is “no effect”. Also, the “maximal conditioned response rate” value in the assay on 3×TgAD and non-Tg mice (non-Tg mice, 6 months, 10 mg/kg) came to 30.4±7.7%. Besides, in the assay with 3×TgAD and non-Tg mice (non-Tg mice, 9-months-old), the “final level of learning” value was determined as 20.6±4.1% and the memory test performance entry is “no significant effect”. In addition, in the assay on 3×TgAD and non-Tg mice (non-Tg mice, 12-months-old), the “final level of learning” value worked out at 25.4±6% and the memory performance entry is “modest improved memory performance which was not significantly better than vehicle-treated group”. In addition, the “maximum level of learning” value in the assay on 3×TgAD and non-Tg mice (non-Tg mice, 15-months-old) was 29.6±5.5%. The “increase in BrdU-positive cells relative to untreated group” value with SVZ from 3×TgAD mice is given as 58%. The “increase in 3H-thymidine uptake relative to control” value in the assay with hippocampal neural cells is 80%.
